Measured values from patent US20130303518A1, “Methods of Inhibiting the Catalytic Activity of a Protein Kinase and of Treating a Protein Kinase Related Disorder” (JIANGSU HANSOH PHARMACEUTICAL CO., LTD., priority 2007, published 2013).
Entries after “also recorded” stand apart in the source; their conditions may differ. Marks after values point to notes of the source that are not given here.

Key:
[1] = target: T1, recombinant human VEGF-R2 (Homo sapiens, UniProt P35968); test: VEGFR-2 kinase assay (ELISA, time-resolved fluorescence); type: biochemical; conditions: recombinant human VEGF-R2, 10 μM ATP, 25° C., 30 minutes; read-out: IC50 (VEGFR-2/bio)
T1 construct: purchased Cell signaling technology #7787
Method: This assay is used to measure the in vitro kinase activity of recombinant human VEGF-R2 in an ELISA assay.
• a. […] Stop Buffer: 50 mM EDTA, pH 8.0. • d.
The following protocol was used: • 1. The test compound was diluted with DMSO to the desired final assay concentration. […] 6 μM substrate peptide (Tyr87) was diluted with dH2O (1:1), 15 μl was added to every assay. • 3. VEGFR-2 enzyme was immediately transferred from −80° C. to ice, and the enzyme was allowed to thaw on ice. • 4. 2.2 μg VEGFR-2 enzyme was taken to the enzyme tube. • 5. […] 0.75 ml of DTT/Kinase buffer was transferred to each enzyme tube to prepare 4× reaction cocktail, and 7.5 μl 4× reaction cocktail was added to every assay. • 7. […] The reaction tube was incubated at 25° C. for 30 minutes. • 9. 30 μl/assay stop buffer (50 mM EDTA, pH 8.0) was added to stop the reaction. • 10. 25 μl of each reaction and 75 μl dH2O/well was transferred to a 96-well streptavidin coated plate, with shaking at room temperature for 60 minutes. • 11. Each well was washed three times with 200 μl PBS-T buffer. Plate was patted on paper towel to remove excess liquid. • 12. […] The reaction tube was incubated, with shaking at room temperature for 60 minutes. • 14. Washing was carried out as described above in step 11. • 15. Europium labeled anti-mouse IgG was diluted 1:500 in PBS-T buffer with 1% BSA, 100 μl diluted antibody was added to each well. • 16. The reaction tube was incubated, with shaking at room temperature for 30 minutes. • 17. Each well was washed five times with 200 μl PBS-T buffer. Plate was patted on paper towel to remove excess liquid. • 18. 100 μl/well DELFIA® Enhancement Solution was added. • 19. The reaction tube was incubated, with shaking at room temperature for 5 minutes. • 20.
The IC50 value can be derived from the IRs of compounds at different concentration gradients.

HUVEC cell = test: Inhibition of cell proliferation assay (SRB) on VEGFR high expressing HUVEC cells; conditions: Homo sapiens, 72 h, read-out: IC50 (VEGFR/HUVEC)
Method: The following in vitro assay may be used to determine the level of activity and effect of different compounds of the present invention on the proliferation inhibition (cell toxic) of endothelium growth factor receptor (VEGFR) high expressing Homo sapiens cancer cell-HUVEC cell.
Then the cells are put back to the incubator and cultured for continuous 72 hours. 72 hours later, the cell exposed to compounds and control cell are assayed for their proliferation using Sulforhodamine B (SRB) method.
HUVEC cells were grown in growth media (DMEM/F12, supplemented with 10% FBS) in 100 mm corning culture plates till confluence at 37° C., 5% CO2. • 2. HUVEC cells were washed in 100 mm plates with FBS, then the cells were harvested by trypsinization and seeded to corning 96-well cell culture plates at concentration of 50000 cells/ml, leaving 6 wells/each plate empty as background. • 3. […] The compounds stock solution was prepared, using DMSO to solve candidate compounds to a concentration of 20 mM. Then DMSO was used to dilute the stock solution to a serious concentration of tested compounds solution (namely, 2 mM, 1 mM, 0.2 mM, 20 μM, 2 μM, 0.2 μM). • 5. […] Each DMSO serial concentration compound solution was diluted by 20 times with culture medium by adding 5 μl DMSO compound solution to 95 μl culture medium, then mixed well by vortex. This promised that the DMSO concentration at that the HUVEC cell will exposed to will not surpass 0.5%. • 6. […] Each well was added 180 μl medium, then 20 μl medium solution of tested compounds prepared at step 5 was added to each well. For negative control group cell, 20 μl culture medium containing 0.5% pure DMSO was added. So, HUVEC cells were exposed to each tested compound at a serial final concentration of 100 μM, 10 μM, 5 μM, 1 μM, 0.1 μM, 0.01 μM, and 0.001 μM. • 7. The culture plates were put back to incubator, and cultured for 72 hours at 37° C., 5% CO2. • 8. 72 hours later, cultures were removed from incubator into sterile work area. • 9. The fixative (50% Trichloroacetic Acid-TCA) was prepared by adding reagent grade water to the TCA, fixing the cells by gently layering 50 μl of cold TCA solution on top of the growth medium. • 10. The plates was incubated for 1 hour at 4° C. and then rinsed with water several times to remove TCA, serum proteins, etc. Plates were air dried and stored until use. Bland background optical density was measured in wells incubated with growth medium without cells. • 11. 0.4% Sulforhodamine B solution was prepared by using 10% acetic acid solution. 50 μl sulforhodamine B solution was added to each well of 96-well plates. • 12. The cells were allowed to stain for 30 minutes. • 13. The wash solution of 10% acetic acid was prepared. At the end of the staining period, the stain was removed and the cells were rinsed quickly with 1% acetic acid. Repeat until unincorporated dye was removed. Wash times were kept to a minimum to reduce desorption of protein-bound dye. After being rinsed, the cultures were air dried. • 14. […] Then cultures were allowed to stand for 5 minutes at room temperature, and the mixing of the dye was enhanced by gentle stirring in a gyratory shaker. • 15. The absorbance was measured by spectrophotometry at a wavelength of 565 nm. The background absorbance of 96-well plates at 690 nm was measured and subtracted from the measurement at 565 nm. • 16. The inhibition rate (IR) was calculated as follows:

HT-29 human colon cancer = test: Therapeutic effects against xenografts of HT-29 human colon cancer in nude mice; type: in vivo
Method: The therapeutic effects of Example 63 against xenografts of HT-29 human colon cancer in nude mice were estimated.
The therapeutic effects of the compound of Example 63 against xenografts of HT-29 human colon cancer in nude mice were estimated.
Preparation method: the compound of Example 63 was prepared to corresponding concentration with distilled water.
Six to seven-week-old BALB/cA-nude female mice was purchased from Slaccas Experimental Animal. Certificate No.: SCXK(Shanghai) 2003˜0003. Raising Conditions: SPF level.
Nude mice were hypodermic inoculated HT-29 human colon cancer cell. After tumors grew to 100-300 mm^3, mice were randomly divided into teams (d0). The volume of tumors and weigh of the mice were measured for 2-3 times per week. The calculation formula of the volume of tumor (V) is: V=½×a×b^2, a: length of tumor, b: width of tumor.

T1 sequence (P35968 20-1356): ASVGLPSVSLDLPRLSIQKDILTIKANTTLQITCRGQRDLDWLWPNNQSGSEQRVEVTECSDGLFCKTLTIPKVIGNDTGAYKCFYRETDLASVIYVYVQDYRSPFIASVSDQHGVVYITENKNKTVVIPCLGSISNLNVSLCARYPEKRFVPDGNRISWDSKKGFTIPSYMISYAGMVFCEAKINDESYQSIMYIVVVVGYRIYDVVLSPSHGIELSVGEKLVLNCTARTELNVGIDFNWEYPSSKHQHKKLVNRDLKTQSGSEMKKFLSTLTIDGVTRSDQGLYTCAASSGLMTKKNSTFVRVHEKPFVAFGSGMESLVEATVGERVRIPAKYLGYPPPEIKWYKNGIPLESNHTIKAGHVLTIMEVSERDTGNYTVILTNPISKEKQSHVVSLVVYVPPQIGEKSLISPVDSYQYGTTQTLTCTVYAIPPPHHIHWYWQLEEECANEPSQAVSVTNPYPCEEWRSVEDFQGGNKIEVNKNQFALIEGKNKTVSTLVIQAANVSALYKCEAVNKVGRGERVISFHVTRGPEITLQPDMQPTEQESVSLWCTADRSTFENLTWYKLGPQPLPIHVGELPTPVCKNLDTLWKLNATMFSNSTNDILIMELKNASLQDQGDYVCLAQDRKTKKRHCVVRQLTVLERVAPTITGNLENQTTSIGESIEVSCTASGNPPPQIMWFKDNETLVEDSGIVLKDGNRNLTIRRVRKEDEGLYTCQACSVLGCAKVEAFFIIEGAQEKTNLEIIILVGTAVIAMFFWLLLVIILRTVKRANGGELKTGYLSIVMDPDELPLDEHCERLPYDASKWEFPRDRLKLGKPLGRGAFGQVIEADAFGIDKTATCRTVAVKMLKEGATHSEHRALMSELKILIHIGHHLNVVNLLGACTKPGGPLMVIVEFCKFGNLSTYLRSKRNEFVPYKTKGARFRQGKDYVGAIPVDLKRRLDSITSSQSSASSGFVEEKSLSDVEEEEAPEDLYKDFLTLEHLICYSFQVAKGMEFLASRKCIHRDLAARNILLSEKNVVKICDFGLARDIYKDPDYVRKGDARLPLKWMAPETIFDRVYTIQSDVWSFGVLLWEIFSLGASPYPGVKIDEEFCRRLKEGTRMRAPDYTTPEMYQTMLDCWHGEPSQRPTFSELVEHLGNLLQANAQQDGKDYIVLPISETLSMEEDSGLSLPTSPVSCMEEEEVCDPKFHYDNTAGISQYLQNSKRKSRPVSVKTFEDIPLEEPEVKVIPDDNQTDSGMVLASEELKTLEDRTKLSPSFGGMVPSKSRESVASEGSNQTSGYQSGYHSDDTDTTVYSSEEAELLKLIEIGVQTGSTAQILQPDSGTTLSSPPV

Row | SMILES | IC50 [1] | IC50 (HUVEC cell) | other results
1 | CCN(CC)CCN1CCCc2[nH]c(/C=C3\C(=O)Nc4cc(NCc5ccc(F)cc5)c(F)cc43)c(C)c2C1=O [Example 3, (Z)-5-(2-Diethylamino-ethyl)-2-[5-fluoro-6-(4-fluoro-benzylamino)-2-oxo-1,2-dihydro-indol-3-ylidenemethyl]-3-methyl-5,6,7,8-tetrahydro-1H-pyrrolo[3,2-c]azepin-4-one] | 280 nM | 100 nM | 
2 | CCN(CC)CCN1CCCc2[nH]c(/C=C3\C(=O)Nc4c(Br)cc(F)cc43)c(C)c2C1=O [Example 4, (Z)-2-(7-Bromo-5-fluoro-2-oxo-1,2-dihydro-indol-3-ylidenemethyl)-5-(2-diethylamino-ethyl)-3-methyl-5,6,7,8-tetrahydro-1H-pyrrolo[3,2-c]azepin-4-one] | 41 nM | 404 nM | 
3 | CCN(CC)CCN1CCCc2[nH]c(/C=C3\C(=O)Nc4ccc(Br)cc43)c(C)c2C1=O [Example 5] | 8.5 nM | 100 nM | 
4 | CCN(CC)CCN1CCCc2[nH]c(/C=C3\C(=O)Nc4cccc(-c5cccc(F)c5F)c43)c(C)c2C1=O [Example 6, (Z)-5-(2-Diethylamino-ethyl)-2-[4-(2,3-difluoro-phenyl)-2-oxo-1,2-dihydro-indol-3-ylidenemethyl]-3-methyl-5,6,7,8-tetrahydro-1H-pyrrolo[3,2-c]azepin-4-one] | 23 nM | 280 nM | 
5 | CCN(CC)CCN1CCCc2[nH]c(/C=C3\C(=O)Nc4cc(NC(=O)COC)c(F)cc43)c(C)c2C1=O [Example 7, (Z)—N-{3-[5-(2-Diethylamino-ethyl)-3-methyl-4-oxo-1,4,5,6,7,8-hexahydro-pyrrolo[3,2-c]azepin-2-ylmethylene]-5-fluoro-2-oxo-2,3-dihydro-1H-indol-6-yl}-2-methoxy-acetamide] | 690 nM |  | 
6 | Cc1c(/C=C2\C(=O)Nc3ccc(Cl)cc32)[nH]c2c1C(=O)N(CCN1CCOCC1)CCC2 [Example 10] | 14 nM | 123 nM | 
7 | Cc1c(/C=C2\C(=O)Nc3cccc(-c4cccc(F)c4F)c32)[nH]c2c1C(=O)N(CCN1CCOCC1)CCC2 [Example 12, (Z)-2-[4-(2,3-Difluoro-phenyl)-2-oxo-1,2-dihydro-indol-3-ylidenemethyl]-3-methyl-5-(2-morpholin-4-yl-ethyl)-5,6,7,8-tetrahydro-1H-pyrrolo[3,2-c]azepin-4-one] | 1 nM | 300 nM | 
8 | CCN(CC)CCN1CCCc2[nH]c(/C=C3\C(=O)Nc4cccc(Br)c43)c(C)c2C1=O [Example 13, (Z)-2-(4-Bromo-2-oxo-1,2-dihydro-indol-3-ylidenemethyl)-5-(2-diethylamino-ethyl)-3-methyl-5,6,7,8-tetrahydro-1H-pyrrolo[3,2-c]azepin-4-one] | 3 nM | 804 nM | 
9 | CCN(CC)CCN1CCCc2[nH]c(/C=C3\C(=O)Nc4cc(OC)ccc43)c(C)c2C1=O [Example 15, (Z)-5-(2-Diethylamino-ethyl)-2-(6-methoxy-2-oxo-1,2-dihydro-indol-3-ylidenemethyl)-3-methyl-5,6,7,8-tetrahydro-1H-pyrrolo[3,2-c]azepin-4-one] | 2 nM | 1200 nM | 
10 | CCN(CC)CCN1CCCc2[nH]c(/C=C3\C(=O)Nc4cccc(C)c43)c(C)c2C1=O [Example 16, (Z)-5-(2-Diethylamino-ethyl)-3-methyl-2-(4-methyl-2-oxo-1,2-dihydro-indol-3-ylidenemethyl)-5,6,7,8-tetrahydro-1H-pyrrolo[3,2-c]azepin-4-one] | 1.3 nM | 210 nM | 
11 | COCC(=O)Nc1cc2c(cc1F)/C(=C/c1[nH]c3c(c1C)C(=O)N(CCN1CCOCC1)CCC3)C(=O)N2 [Example 18, (Z)—N-{5-Fluoro-3-[3-methyl-5-(2-morpholin-4-yl-ethyl)-4-oxo-1,4,5,6,7,8-hexahydro-pyrrolo[3,2-c]azepin-2-ylmethylene]-2-oxo-2,3-dihydro-1H-indol-6-yl}-2-methoxy-acetamide] | 10 nM |  | 
12 | Cc1c(/C=C2\C(=O)Nc3cc(NCc4ccc(F)cc4)c(F)cc32)[nH]c2c1C(=O)N(CCN1CCOCC1)CCC2 [Example 19, (Z)-2-[5-Fluoro-6-(4-fluoro-benzylamino)-2-oxo-1,2-dihydro-indol-3-ylidenemethyl]-3-methyl-5-(2-morpholin-4-yl-ethyl)-5,6,7,8-tetrahydro-1H-pyrrolo[3,2-c]azepin-4-one] | 12 nM | 146 nM | 
13 | Cc1c(/C=C2\C(=O)Nc3cc(NC(=O)[C@H](C)O)c(F)cc32)[nH]c2c1C(=O)N(CCN1CCOCC1)CCC2 [Example 21, (S,Z)—N-{5-Fluoro-3-[3-methyl-5-(2-morpholin-4-yl-ethyl)-4-oxo-1,4,5,6,7,8-hexahydro-pyrrolo[3,2-c]azepin-2-ylmethylene]-2-oxo-2,3-dihydro-1H-indol-6-yl}-2-hydroxy-propionamide] | 160 nM |  | 
14 | CCN(CC)CCN1CCCc2[nH]c(/C=C3\C(=O)Nc4ccc(F)cc43)c(C)c2C1=O [Example 63, malate] |  |  | T/C (%) (HT-29 human colon cancer; 40 mg/kg p.o d0~12, P < 0.01 vs control): 31.5* %; RTV (relative tumor volume) (HT-29 human colon cancer; X ± SD, 40 mg/kg p.o d0~12, dn vs d0): 0.80 ± 0.42; TV (volume of tumor) dn (HT-29 human colon cancer; X ± SD, 40 mg/kg p.o d0~12, dn: the 13th day after the first dosage): 300 ± 154 mm^3; tolerance of mice to the compound (in words) (HT-29 human colon cancer; continuous oral dosing, nude mice, malate): well tolerant; also recorded: well tolerant to the compound without obvious toxicity

The remaining compounds from weak to strong by IC50 [1], led by results:

Row | IC50 [1] | SMILES | IC50 (HUVEC cell) | other results
15 | 490 nM | CCN(CC)CCN1CCCc2[nH]c(/C=C3\C(=O)Nc4cc(NC(=O)C(C)(C)O)c(F)cc43)c(C)c2C1=O [Example 9, (Z)—N-{3-[5-(2-Diethylamino-ethyl)-3-methyl-4-oxo-1,4,5,6,7,8-hexahydro-pyrrolo[3,2-c]azepin-2-ylmethylene]-5-fluoro-2-oxo-2,3-dihydro-1H-indol-6-yl}-2-hydroxy-2-methyl-propionamide] | 68 nM | 
16 | 115 nM | CCN(CC)CCN1CCCc2[nH]c(/C=C3\C(=O)Nc4cc(NC(=O)[C@H](C)O)c(F)cc43)c(C)c2C1=O [Example 8, (S,Z)—N-{3-[5-(2-Diethylamino-ethyl)-3-methyl-4-oxo-1,4,5,6,7,8-hexahydro-pyrrolo[3,2-c]azepin-2-ylmethylene]-5-fluoro-2-oxo-2,3-dihydro-1H-indol-6-yl}-2-hydroxy-propionamide] | 308 nM | 
17 | 72 nM | Cc1c(/C=C2\C(=O)Nc3c(NC=O)cc(F)cc32)[nH]c2c1C(=O)N(CCN1CCOCC1)CCC2 [Example 20, (Z)—N-{5-Fluoro-3-[3-methyl-5-(2-morpholin-4-yl-ethyl)-4-oxo-1,4,5,6,7,8-hexahydro-pyrrolo[3,2-c]azepin-2-ylmethylene]-2-oxo-2,3-dihydro-1H-indol-7-yl}-formamide] |  | 
18 | 21 nM | CCN(CC)CCN1CCCc2[nH]c(/C=C3\C(=O)Nc4ccc(Cl)cc43)c(C)c2C1=O [Example 2] | 288 nM | 
19 | 4 nM | CCN(CC)CCN1CCCc2[nH]c(/C=C3\C(=O)Nc4ncc(Br)cc43)c(C)c2C1=O [Example 14] | 457 nM | 
20 | 1 nM | CCN(CC)CCN1CCCc2[nH]c(/C=C3\C(=O)Nc4cccc(CCO)c43)c(C)c2C1=O [Example 17, (Z)-5-(2-Diethylamino-ethyl)-2-[4-(2-hydroxy-ethyl)-2-oxo-1,2-dihydro-indol-3-ylidenemethyl]-3-methyl-5,6,7,8-tetrahydro-1H-pyrrolo[3,2-c]azepin-4-one] | 129 nM | 
